Series [1] has as its system OATP1B3. The settings on record: cited from earlier work.
Series [2] deals with OATP1B1 and OATP1B3. Conditions: both cell lines and human SCH; vs US FDA cut-off 1.1.
For series [3], the system named is OATP1B1. The settings on record: OATP1B1-expressing cell line, substrate E217βG; ref Pahwa et al., 2017; cited from earlier work.
Series [4] deals with T1, OATP1B3 (Homo sapiens, UniProt Q9NPD5).
T1 sequence (Q9NPD5 1-702): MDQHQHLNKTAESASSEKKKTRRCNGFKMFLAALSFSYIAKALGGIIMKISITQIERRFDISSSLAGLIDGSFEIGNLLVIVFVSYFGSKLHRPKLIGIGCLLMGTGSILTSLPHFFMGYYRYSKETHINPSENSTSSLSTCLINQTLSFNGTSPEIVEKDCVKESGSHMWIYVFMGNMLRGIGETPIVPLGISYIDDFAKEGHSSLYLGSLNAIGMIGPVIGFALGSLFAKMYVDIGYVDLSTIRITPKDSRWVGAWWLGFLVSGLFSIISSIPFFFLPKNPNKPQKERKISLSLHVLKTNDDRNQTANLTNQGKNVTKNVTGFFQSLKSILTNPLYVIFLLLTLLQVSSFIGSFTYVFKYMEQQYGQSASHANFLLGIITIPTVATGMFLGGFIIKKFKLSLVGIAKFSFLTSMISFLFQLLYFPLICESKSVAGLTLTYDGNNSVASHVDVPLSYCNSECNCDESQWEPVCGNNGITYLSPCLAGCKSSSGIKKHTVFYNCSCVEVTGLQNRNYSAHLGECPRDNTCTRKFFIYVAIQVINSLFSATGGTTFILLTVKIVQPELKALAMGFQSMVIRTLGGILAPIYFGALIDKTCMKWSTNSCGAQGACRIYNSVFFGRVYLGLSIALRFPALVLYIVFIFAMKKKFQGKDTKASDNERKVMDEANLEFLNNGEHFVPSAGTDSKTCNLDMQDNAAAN
The settings on record: OATP1B3-expressing cell line, substrate E217βG; ref Pahwa et al., 2017; cited from earlier work.

In series [5] the test system is OATP1B1 and OATP1B3. Conditions: for Co-Incubation R / Pre+Co-Incubation R: Hepatocytes, substrate rosuvastatin, R-value model; for accumulation of [3H]rosuvastatin after inhibitor pre-incubation: washing.
Series [6] has as its system OATP1B1 and OATP1B3. In words: Inhibition of [3H]pitavastatin accumulation in human SCH. Conditions: for Co-Incubation R / Pre+Co-Incubation R: Hepatocytes, substrate pitavastatin, R-value model; for accumulation of [3H]pitavastatin after inhibitor pre-incubation: human SCH, washing. The format is in vitro ADME.
Series [7] can be described thus: Estimated maximum total plasma concentration at the inlet to the liver. Conditions: calculated by Eq. 3 from literature parameters (Supplement Table S2).
The subject of series [8] is OATP1B1. Conditions: OATP1B1-expressing cell line, substrate rosuvastatin; ref Farasyn et al., 2019; cited from earlier work.
The test system of series [9] is OATP1B1. The settings on record: read-out: Michaelis constant (Km) for OATP1B1, cited from earlier work.
A further series concerns human hepatocytes. The settings on record: suspension of human hepatocytes, with vs without rifampicin; ref Bi et al., 2013; cited from earlier work.
Series [10] relates to cynomolgus monkey hepatocytes. The settings on record: ref Ufuk et al., 2018; cited from earlier work.
In series [11] the test system is OATP1B1, NTCP, and OATP1B3. The settings on record: ref Ho et al., 2006; Kitamura et al., 2008; cited from earlier work.
For series [12], the target named is T1, OATP1B3. Briefly: Inhibition of [3H]CCK-8 accumulation in human SCH. The format is in vitro ADME. The settings on record: mean ± SE.
The test system of series [13] is OATP1B1 and OATP1B3. Conditions: transporter-expressing cell lines; ref Farasyn et al., 2019; cited from earlier work.
Where [14] appears, read: human hepatocytes, inhibitor 100 μM co-incubation, mean ± SE.

This is an account of results in article PMC11005446 (European journal of pharmaceutical sciences : official …, 2021).

Like-named read-outs stand apart in the source and are kept apart here.

In general, Km refers to the concentration of substrate that gives half-maximal velocity. As for cholecystokinin 8 [CCK-8], in the series on OATP1B3 [1], the Michaelis-Menten constant (Km) was 3.8 µM.
With `Cc1nc(Nc2ncc(C(=O)Nc3c(C)cccc3Cl)s2)cc(N2CCN(CCO)CC2)n1` [Dasatinib, dasatinib], the “R-values under pre+co-incubation conditions” value in the series with OATP1B1 and OATP1B3 [2] is given as more than 1.1. Moreover, the “Co-Incubation R” value is 1.07 (1.04–1.09) in the series with OATP1B1 [3]; 1.05 (1.05–1.09) on OATP1B3 [4]; 1.09 (1.05–1.14) with OATP1B1 and OATP1B3 [5]. Besides, the “Pre+Co-Incubation R” value is 1.13 (1.09–1.20) in the series on OATP1B1 [3]; 1.11 (1.09–1.22) on OATP1B3 [4]; 1.27 (1.15–1.51) with OATP1B1 and OATP1B3 [5].
As for `CO[C@H]1C[C@@H]2CC[C@@H](C)[C@@](O)(O2)C(=O)C(=O)N2CCCC[C@H]2C(=O)O[C@H]([C@H](C)C[C@@H]2CC[C@@H](O)[C@H](OC)C2)CC(=O)[C@H](C)/C=C(\C)[C@@H](O)[C@@H](OC)C(=O)[C@H](C)C[C@H](C)/C=C/C=C/C=C/1C` [SIR, sirolimus], the “Co-Incubation R” value is reported as 1.00 (1.00–1.01) in the series with OATP1B1 and OATP1B3 [6]; 1.00 (1.00–1.03) with OATP1B1 [8]; 1.00 (1.00–1.00) in the series on OATP1B1 and OATP1B3 [5]. Moreover, the “Pre+Co-Incubation R” value in the series on OATP1B1 and OATP1B3 [6] was 1.00 (1.00–1.01); with OATP1B1 and OATP1B3 [5], 1.00 (1.00–1.00). For the same compound, the “accumulation of [3H]pitavastatin after inhibitor pre-incubation” value with OATP1B1 and OATP1B3 [6] (1 h pre-incubation at 0.6 μM) is reported as “did not affect”. The “maximum total plasma concentration at the inlet to the liver (Iin,max,plasma)” value in series [7] was 0.03 µM. Besides, the “R-values under pre+co-incubation conditions” value in the series on OATP1B1 and OATP1B3 [2] is recorded as less than 1.1. In addition, the “accumulation of [3H]rosuvastatin after inhibitor pre-incubation” value with OATP1B1 and OATP1B3 [5] (human SCH, 1 h pre-incubation at 0.6 μM) amounted to 0.63 ± 0.08 fold vs. CTL.
Take `CC(C)c1nc(N(C)S(C)(=O)=O)nc(-c2ccc(F)cc2)c1/C=C/[C@@H](O)C[C@@H](O)CC(=O)O` [rosuvastatin]: in the series with OATP1B1 [9] (ref Kitamura et al., 2008), the Km was 0.8 µM. In addition, the “share of total hepatic uptake clearance due to active transport processes” value with human hepatocytes was “approximately 90%”. For the same compound, the “uptake clearance attributed to passive diffusion” value in series [10] is on record as 4%. Further, in series [11], the “contribution of NTCP to active uptake into human hepatocytes” value was approximately 35%, the “contribution of OATP1B1 to active uptake into human hepatocytes” value was ~ 50% and the “contribution of OATP1B3 to active uptake into human hepatocytes” value is approximately 15%. The Km with OATP1B3 [1] (read-out: Michaelis constant (Km) for OATP1B3, ref Kitamura et al., 2008) is 14.2 µM.
Consider `CO[C@H]1/C=C/O[C@@]2(C)Oc3c(C)c(O)c4c(O)c(c(/C=N/N5CCN(C)CC5)c(O)c4c3C2=O)NC(=O)/C(C)=C\C=C\[C@H](C)[C@H](O)[C@@H](C)[C@@H](O)[C@@H](C)[C@H](OC(C)=O)[C@@H]1C` [rifampicin], for which the “accumulation of [3H]CCK-8, pre+co-incubation” value on OATP1B3 [12] (human SCH, inhibitor 50 μM, 1 h pre-incubation then co-incubation) is 0.18 ±0.12 fold of control. Moreover, in the series with OATP1B1 and OATP1B3 [5] (human SCH, inhibitor 50 μM, 1 h pre-incubation then co-incubation, mean ± SE), the “accumulation of [3H]rosuvastatin, pre+co-incubation” value was 0.45 ± 0.15 fold of control.
Consider `CO[C@H]1C[C@@H]2CC[C@@H](C)[C@@](O)(O2)C(=O)C(=O)N2CCCC[C@H]2C(=O)O[C@H]([C@H](C)C[C@@H]2CC[C@@H](OCCO)[C@H](OC)C2)CC(=O)[C@H](C)/C=C(\C)[C@@H](O)[C@@H](OC)C(=O)[C@H](C)C[C@H](C)/C=C/C=C/C=C/1C` [EVR, everolimus], for which, in the series on OATP1B1 and OATP1B3 [6], the “Co-Incubation R” value was 1.01 (1.01–1.02). For the same compound, the “Pre+Co-Incubation R” value with OATP1B1 and OATP1B3 [6] is given as 1.09 (1.08–1.13); with OATP1B1 and OATP1B3 [5], 1.07 (1.05–1.11). In the series on OATP1B1 and OATP1B3 [6] (1 h pre-incubation at 0.5 μM, model estimate ± SE), the “accumulation of [3H]pitavastatin after inhibitor pre-incubation” value is given as 0.78±0.06 fold vs. CTL. In addition, in series [7], the “maximum total plasma concentration at the inlet to the liver (Iin,max,plasma)” value was 0.17 µM. The “R values from cell lines, pre+co-incubation” value in the series with OATP1B1 and OATP1B3 [13] is on record as 1.23. The “accumulation of [3H]rosuvastatin after inhibitor pre-incubation” value was 0.8 ± 0.07 fold of CTL in the series with OATP1B1 and OATP1B3 [5] (human SCH, 1 h pre-incubation at 0.2 μM, model estimate ± SE); 0.59 ± 0.07 fold of CTL in the series on OATP1B1 and OATP1B3 [5] (human SCH, 1 h pre-incubation at 0.8 μM, model estimate ± SE).
Consider `O=C(O)C[C@H](O)C[C@H](O)/C=C/c1c(C2CC2)nc2ccccc2c1-c1ccc(F)cc1` [pitavastatin], for which the Km with OATP1B1 [9] (ref Hirano et al., 2004) was 3 µM; in the series with OATP1B3 [1] (read-out: Michaelis constant (Km) for OATP1B3, ref Hirano et al., 2004) it was 3 µM. The “uptake clearance attributed to passive diffusion” value in [10] is recorded as 20%.
On to `O=C1OC(c2ccc(O)c(S(=O)(=O)O)c2)(c2ccc(O)c(S(=O)(=O)O)c2)c2c(Br)c(Br)c(Br)c(Br)c21` [BSP, bromosulfophthalein], for which the “accumulation of [3H]pitavastatin, co-incubation” value in the series on OATP1B1 and OATP1B3 [6] (setting [14]) is 0.44 ± 0.05 fold of control. For the same compound, the “accumulation of [3H]CCK-8, co-incubation” value at OATP1B3 [12] (human hepatocytes, inhibitor 100 μM co-incubation) was 0.10 ± 0.01 fold of control. In the series with OATP1B1 and OATP1B3 [5] (setting [14]), the “accumulation of [3H]rosuvastatin, co-incubation” value was 0.20 ± 0.09 fold of control. In addition, in the series on OATP1B1 and OATP1B3 [5] (human hepatocytes, inhibitor 100 μM co-incubation, range 77–92%), the “inhibition of rosuvastatin uptake, co-incubation” value is recorded as ~ 84%.
